Test results published in patent US20230104936A1, “TRPML MODULATORS” (Casma Therapeutics, Inc., priority 2019, published 2023).

System: TFEB
Experiment: TFEB nuclear translocation assay, HeLa wt cells
Type: cell-based
Settings: 2 hrs compound treatment, Table 1 does not say HeLa wt or TRPML1 KO
In short: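 HeLa wt or TRPML1 KO cells treated 2 hrs with compounds at 37° C, fixed in 4% PFA, immunostained with anti-TFEB plus Alexa 488 secondary and Hoechst. Imaged at ×20, four fields/well; read-out is nuclear/perinuclear-ring TFEB intensity ratio, reported as AC50.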

Q: How did the AC50 (Homo sapiens, HeLa, 2 h) turn out when `Cc1ccc(S(=O)(=O)Nc2ccccc2N2CCC3(CC2)COC(C)(C)C3)cc1F` [Compound A-692, N-(2-{3,3-dimethyl-2-oxa-8-azaspiro[4.5]decan-8-yl}phenyl)-3-fluoro-4-methylbenzene-1-sulfonamide] was run?
A: 2010 to 8000 nM

Q: How did the AC50 (Homo sapiens, HeLa, 2 h) turn out when `CC(C)CN1CCN(c2ccccc2NS(=O)(=O)c2ccc(S(=O)(=O)N(C)C)cc2)CCC1=O` [Compound A-526, N1,N1-dimethyl-N4-{2-[4-(2-methylpropyl)-5-oxo-1,4-diazepan-1-yl]phenyl}benzene-1,4-disulfonamide] was run?
A: 2010 to 8000 nM

Q: With `CN(C)S(=O)(=O)c1ccc(S(=O)(=O)Nc2cccc(C#N)c2N2CCC3(CC2)COC(C)(C)C3)cc1` [Compound A-724, N4-(3-cyano-2-{3,3-dimethyl-2-oxa-8-azaspiro[4.5]decan-8-yl}phenyl)-N1,N1-dimethylbenzene-1,4-disulfonamide] as the molecule, how does the AC50 (Homo sapiens, HeLa, 2 h) read?
A: ≤ 2000 nM

Q: Which AC50 (Homo sapiens, HeLa, 2 h) does the source give for `CN(C)S(=O)(=O)c1ccc(S(=O)(=O)Nc2ccccc2N2CCC(C)(CO)CC2)cc1` [Compound A-436, N4-{2-[4-(hydroxymethyl)-4-methylpiperidin-1-yl]phenyl}-N1,N1-dimethylbenzene-1,4-disulfonamide] here?
A: 2010 to 8000 nM

Q: With `CCCOc1ccc(S(=O)(=O)Nc2ccccc2N2CCN(C(=O)C(C)(C)C)CC2)cc1` [Compound A-573, N-{2-[4-(2,2-dimethylpropanoyl)piperazin-1-yl]phenyl}-4-propoxybenzene-1-sulfonamide] as the molecule, how does the AC50 (Homo sapiens, HeLa, 2 h) read?
A: 8010 to 9990 nM

Q: With `Cc1nn(C)c(N2CCN(c3ccc(Cl)cc3F)CC2)c1NS(=O)(=O)c1ccc(S(=O)(=O)N(C)C)cc1` [Compound A-18, N1-(5-(4-(4-chloro-2-fluorophenyl)piperazin-1-yl)-1,3-dimethyl-1H-pyrazol-4-yl)-N4,N4-dimethylbenzene-1,4-disulfonamide] as the molecule, how does the AC50 (Homo sapiens, HeLa, 2 h) read?
A: ≤ 2000 nM

Q: With `C[C@@H]1COC[C@H](C)N1CC1CCN(c2c(F)cccc2NS(=O)(=O)c2ccc(S(=O)(=O)N(C)C)cc2)CC1` [Compound A-824, N4-[2-(4-{[(3R,5S)-3,5-dimethylmorpholin-4-yl]methyl}piperidin-1-yl)-3-fluorophenyl]-N1,N1-dimethylbenzene-1,4-disulfonamide] as the molecule, how does the AC50 (Homo sapiens, HeLa, 2 h) read?
A: ≤ 2000 nM

Q: How did the AC50 (Homo sapiens, HeLa, 2 h) turn out when `CN(C)S(=O)(=O)c1ccc(S(=O)(=O)n2c(=O)n(C3CCN(c4ccc(Cl)cc4F)CC3)c3ccccc32)cc1` [Compound A-63, 4-({3-[1-(4-chloro-2-fluorophenyl)piperidin-4-yl]-2-oxo-2,3-dihydro-1H-1,3-benzodiazol-1-yl}sulfonyl)-N,N-dimethylbenzene-1-sulfonamide] was run?
A: 2010 to 8000 nM

Q: `CN1CCc2ccccc2C12CCN(c1ccccc1NS(=O)(=O)c1ccc(S(C)(=O)=O)cc1)CC2` [Compound A-441, N-(2-(2-methyl-3,4-dihydro-2H-spiro[isoquinoline-1,4′-piperidin]-1′-yl)phenyl)-4-(methylsulfonyl)benzenesulfonamide] was tested. Which AC50 (Homo sapiens, HeLa, 2 h) did it give?
A: 2010 to 8000 nM

Q: How did the AC50 (Homo sapiens, HeLa, 2 h) turn out when `CC(c1cccc(F)c1N1CCC(CN2C3CCC2COC3)CC1)S(=O)(=O)c1ccc(S(=O)(=O)N(C)C)cc1` (stereo not drawn) [Compound A-832, 4-((1-(2-(4-((3-oxa-8-azabicyclo[3.2.1]octan-8-yl)methyl)piperidin-1-yl)-3-fluorophenyl)ethyl)sulfonyl)-N,N-dimethylbenzenesulfonamide] was run?
A: ≤ 2000 nM

Q: With `COCC1(C)CCN(c2ccccc2NS(=O)(=O)c2ccc3c(c2)CCOC3)CC1` [Compound A-727, N-{2-[4-(methoxymethyl)-4-methylpiperidin-1-yl]phenyl}-3,4-dihydro-1H-2-benzopyran-6-sulfonamide] as the molecule, how does the AC50 (Homo sapiens, HeLa, 2 h) read?
A: 2010 to 8000 nM

Q: With `CN(C)S(=O)(=O)c1ccc(S(=O)(=O)Nc2ccccc2N2CCN(C(=O)C(O)c3ccccc3)CC2)cc1` (stereo not drawn) [Compound A-335, N4-{2-[4-(2-hydroxy-2-phenylacetyl)piperazin-1-yl]phenyl}-N1,N1-dimethylbenzene-1,4-disulfonamide] as the molecule, how does the AC50 (Homo sapiens, HeLa, 2 h) read?
A: ≥ 10000 nM

Q: How did the AC50 turn out when `C[C@@H]1CN(CC2CCN(c3c(F)cccc3[C@H](C)S(=O)(=O)c3ccc(S(=N)(=O)N(C)C)cc3)CC2)C[C@H](C)O1` (single isomer, unassigned) [Compound A-1001] was run?
A: ≤ 2000 nM

Q: For `CC(c1cccc(F)c1N1CCC(CN2C3CCC2COC3)CC1)S(=O)(=O)c1ccc(C(F)F)cc1` (stereo not drawn) [Compound A-906, 8-{[1-(2-{1-[4-(difluoromethyl)benzenesulfonyl]ethyl}-6-fluorophenyl)piperidin-4-yl]methyl}-3-oxa-8-azabicyclo[3.2.1]octane], which AC50 (Homo sapiens, HeLa, 2 h) is on record?
A: ≤ 2000 nM

Q: Which AC50 (Homo sapiens, HeLa, 2 h) does the source give for `CC(C)(C)S(=O)(=O)c1ccc(S(=O)(=O)Nc2cccc(Cl)c2N2CCOCC2)cc1` [Compound A-278, N-[3-chloro-2-(morpholin-4-yl)phenyl]-4-(2-methylpropane-2-sulfonyl)benzene-1-sulfonamide] here?
A: ≥ 10000 nM

Q: For `CN(C)S(=O)(=O)c1ccc(S(=O)(=O)Nc2nnc(N3CCN(c4ccc(Cl)cc4F)CC3)s2)cc1` [Compound A-36, N4-{5-[4-(4-chloro-2-fluorophenyl)piperazin-1-yl]-1,3,4-thiadiazol-2-yl}-N1,N1-dimethylbenzene-1,4-disulfonamide], which AC50 (Homo sapiens, HeLa, 2 h) is on record?
A: ≤ 2000 nM

Q: `COCC1(C)CCN(c2ccccc2NS(=O)(=O)c2cccc(C(C)(C)OC)c2)CC1` [Compound A-633, N-{2-[4-(methoxymethyl)-4-methylpiperidin-1-yl]phenyl}-3-(2-methoxypropan-2-yl)benzene-1-sulfonamide] was tested. Which AC50 (Homo sapiens, HeLa, 2 h) did it give?
A: 2010 to 8000 nM

Q: How did the AC50 (Homo sapiens, HeLa, 2 h) turn out when `CN1CC(c2ccccc2)C2(CCN(c3ccccc3NS(=O)(=O)c3ccc(S(=O)(=O)N(C)C)cc3)CC2)C1=O` (stereo not drawn) [Compound A-318, N1,N1-dimethyl-N4-(2-{2-methyl-1-oxo-4-phenyl-2,8-diazaspiro[4.5]decan-8-yl}phenyl)benzene-1,4-disulfonamide] was run?
A: 2010 to 8000 nM

Q: Which AC50 (Homo sapiens, HeLa, 2 h) does the source give for `CC1(C)Cc2cc(S(=O)(=O)Nc3ccccc3N3CCC(C(C)(F)F)CC3)ccc2O1` [Compound A-636, N-{2-[4-(1,1-difluoroethyl)piperidin-1-yl]phenyl}-2,2-dimethyl-2,3-dihydro-1-benzofuran-5-sulfonamide] here?
A: ≤ 2000 nM

Q: `CN(C)S(=O)(=O)c1ccc(S(=O)(=O)Nc2ccccc2N2CCN(C(=O)[C@@H]3C[C@@H]4CC[C@H]3O4)CC2)cc1` (racemic) [Compound A-449, rac-N1,N1-dimethyl-N4-(2-{4-[(1R,2R,4S)-7-oxabicyclo[2.2.1]heptane-2-carbonyl]piperazin-1-yl}phenyl)benzene-1,4-disulfonamide] was tested. Which AC50 (Homo sapiens, HeLa, 2 h) did it give?
A: 2010 to 8000 nM

Q: With `COc1ccc(S(=O)(=O)Nc2ccccc2N2CC(Cc3ccc(F)cc3F)C2)cc1` [Compound A-219, N-(2-{3-[(2,4-difluorophenyl)methyl]azetidin-1-yl}phenyl)-4-methoxybenzene-1-sulfonamide] as the molecule, how does the AC50 (Homo sapiens, HeLa, 2 h) read?
A: ≥ 10000 nM

Q: With `CN(C)S(=O)(=O)c1ccc(S(=O)(=O)Nc2ccccc2N2CCN(C(=O)C34CCC(CC3)C4)CC2)cc1` [Compound A-460, N4-[2-(4-{bicyclo[2.2.1]heptane-1-carbonyl}piperazin-1-yl)phenyl]-N1,N1-dimethylbenzene-1,4-disulfonamide] as the molecule, how does the AC50 (Homo sapiens, HeLa, 2 h) read?
A: ≤ 2000 nM

Q: For `COCC1(C)CCN(c2ccccc2NS(=O)(=O)c2ccc3c(c2)CC(C)(C)O3)CC1` [Compound A-613, N-{2-[4-(methoxymethyl)-4-methylpiperidin-1-yl]phenyl}-2,2-dimethyl-2,3-dihydro-1-benzofuran-5-sulfonamide], which AC50 (Homo sapiens, HeLa, 2 h) is on record?
A: ≤ 2000 nM

Q: Which AC50 (Homo sapiens, HeLa, 2 h) does the source give for `C[C@@H]1CN(CC2CCN(c3c(F)cccc3NS(=O)(=O)c3ccc(C(F)(F)C4CC4)cc3)CC2)C[C@H](C)O1` [Compound A-814, 4-(cyclopropyldifluoromethyl)-N-[2-(4-{[(2R,6S)-2,6-dimethylmorpholin-4-yl]methyl}piperidin-1-yl)-3-fluorophenyl]benzene-1-sulfonamide] here?
A: ≤ 2000 nM
